Results from ChEMBL document CHEMBL3784914, “Bioactive lignan constituents from the twigs of Sambucus williamsii” (Bioorg Med Chem Lett, 2016).

Key:
XF498 = assay: Cytotoxicity against human XF498 cells by SRB assay; format: functional, cell-based
[1] = Cytotoxicity against human SKOV3 cells by SRB assay; format: functional, cell-based; conditions: SK-OV-3
[2] = Cytotoxicity against mouse BV2 cells assessed as cell viability at 20 uM by MTT assay; format: cell-based, BV-2; conditions: read-out: Activity
A549 = assay: Cytotoxicity against human A549 cells by SRB assay; format: functional, cell-based
C6 = assay: Neuroprotective activity in rat C6 cells assessed as NGF secretion at 20 uM after 24 hrs by ELISA; format: functional
SK-MEL-2 = assay: Cytotoxicity against human SK-MEL-2 cells by SRB assay; format: functional, cell-based
[3] = Cytotoxicity in rat C6 cells assessed as cell viability at 20 uM after 24 hrs by MTT assay; format: cell-based; conditions: read-out: Activity
[4] = Anti-neuroinflammatory activity in LPS-activated mouse BV2 cells assessed as inhibition of NO production after 24 hrs by Griess assay; format: functional, cell-based; conditions: BV-2, 24 h

Structure (SMILES)	IC50 [4] [µM]	IC50 (XF498) [µM]	IC50 [1] [µM]	viability at 20 µM [2] [%]	IC50 (A549) [µM]	Activity (C6) [%]	IC50 (SK-MEL-2) [µM]	viability at 24 h, 20 µM [3] [%]
COc1cc([C@H]2OC[C@H]3[C@@H]2CO[C@@H]3c2cc(OC)c(O)c(OC)c2)ccc1O	45.6	> 30	> 30	127	> 30	96.39	> 30	103
COc1cc(C[C@@H]2CO[C@H](c3ccc(O)c(OC)c3)[C@]2(O)CO)ccc1O	> 500	> 30	> 30	128	> 30	107.97	> 30	106
COc1cc(/C=C/C(=O)OCCCc2cc(OC)c3c(c2)[C@@H](CO)[C@H](c2cc(OC)c(O[C@H](CO)[C@H](O)c4ccc(O)c(OC)c4)c(OC)c2)O3)ccc1O	7.04	18.4	17.5	146	16.4	153.99	14.1	82.7
COc1cc(C(O)[C@H]2CO[C@H](c3ccc(O)c(OC)c3)[C@H]2CO)ccc1O (stereo not given in full)	129	> 30	> 30	114	> 30	101.55	> 30	104
COc1cc([C@@H]2OC[C@@H]3[C@H]2CO[C@H]3c2ccc(O)c(OC)c2)ccc1O [(+)-PINORESINOL]	34.2	> 30	> 30	148	> 30	106.93	> 30	105
COc1cc([C@@H]2Oc3c(OC)cc(CCCO)cc3[C@H]2CO)ccc1O [DIHYDRODEHYDRODICONIFERYL ALCOHOL]	40	> 30	> 30	129	> 30	97.14	> 30	105
COc1cc([C@@H]2c3cc4c(cc3[C@@H](O[C@@H]3O[C@@H]5CO[C@@H](C)O[C@H]5[C@H](O)[C@H]3O)[C@H]3COC(=O)[C@H]23)OCO4)cc(OC)c1O [ETOPOSIDE]			0.84					
CCCCC/C=C/C(=O)CCc1ccc(O)c(OC)c1 [SHOGAOL]						151.75		105

The next lines start with results.

IC50 [4] [µM]	Structure (SMILES)	IC50 (XF498) [µM]	IC50 [1] [µM]	viability at 20 µM [2] [%]	IC50 (A549) [µM]	Activity (C6) [%]	IC50 (SK-MEL-2) [µM]	viability at 24 h, 20 µM [3] [%]
215	COc1cc(C[C@H]2CO[C@H](c3ccc(O)c(OC)c3)[C@@]2(O)CO)ccc1O	> 30	> 30	151	> 30	107.88	> 30	103
6.82	COc1cc(/C=C/C(=O)OCCCc2cc(OC)c3c(c2)[C@@H](CO)[C@H](c2cc(OC)c(O[C@@H](CO)[C@H](O)c4ccc(O)c(OC)c4)c(OC)c2)O3)ccc1O	18.1	15.7	157	13.2	183.95	11.1	92.3
14.7	COc1cc(/C=C\C(=O)OCCCc2cc(OC)c3c(c2)[C@@H](CO)[C@H](c2cc(OC)c(O[C@H](CO)[C@H](O)c4ccc(O)c(OC)c4)c(OC)c2)O3)ccc1O	19.6	17.6	138	15.8	155.96	11.4	97
72.6	COc1cc(C[C@H]2CO[C@H](c3ccc(O)c(OC)c3)[C@H]2CO)ccc1O [LARICIRESINOL]	> 30	> 30	147	> 30	77.31	> 30	101
20.8	CNC(=N)NCCC[C@H](N)C(=O)O [TILARGININE]			102				
